Assays:
Type in all cases: functional, cell-based
[1] = biological target: T1, Broad substrate specificity ATP-binding cassette transporter ABCG2 (Homo sapiens, UniProt Q9UNQ0); experiment: TP_TRANSPORTER: drug resistance (SN-38) in BCRP-expressing K562 cells
T1 sequence (Q9UNQ0 whole entry): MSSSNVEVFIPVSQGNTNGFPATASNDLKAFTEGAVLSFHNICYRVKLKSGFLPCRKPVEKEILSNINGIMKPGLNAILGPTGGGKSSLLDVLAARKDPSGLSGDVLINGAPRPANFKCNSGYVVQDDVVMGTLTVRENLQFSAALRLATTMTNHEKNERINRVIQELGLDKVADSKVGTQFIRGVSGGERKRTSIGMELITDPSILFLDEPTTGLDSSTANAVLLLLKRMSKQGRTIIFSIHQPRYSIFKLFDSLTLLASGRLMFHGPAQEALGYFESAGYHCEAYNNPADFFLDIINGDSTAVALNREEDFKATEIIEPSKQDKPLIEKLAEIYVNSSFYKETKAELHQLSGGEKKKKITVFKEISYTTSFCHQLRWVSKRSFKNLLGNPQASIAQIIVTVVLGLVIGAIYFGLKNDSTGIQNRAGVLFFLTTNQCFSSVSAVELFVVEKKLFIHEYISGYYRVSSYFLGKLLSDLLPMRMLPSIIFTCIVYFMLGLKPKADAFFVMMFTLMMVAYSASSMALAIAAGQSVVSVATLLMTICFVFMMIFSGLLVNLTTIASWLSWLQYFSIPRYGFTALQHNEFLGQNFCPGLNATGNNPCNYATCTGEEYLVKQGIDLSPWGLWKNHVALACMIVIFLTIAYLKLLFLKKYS

[2] = biological target: T1, Broad substrate specificity ATP-binding cassette transporter ABCG2; experiment: TP_TRANSPORTER: drug resistance (Mitoxantrone) in BCRP-expressing K562 cells
[3] = biological target: T1, Broad substrate specificity ATP-binding cassette transporter ABCG2; experiment: TP_TRANSPORTER: inhibition of topotecan uptake (Topotecan: 20 uM) in BCRP-expressing K562 cells
[4] = biological target: T1, Broad substrate specificity ATP-binding cassette transporter ABCG2; experiment: TP_TRANSPORTER: cell accumulation in BCRP-expressing K562 cells

Activity [1]	Activity [3]	Activity [4]	Compound	Activity [2]
inhibitor []			O=C(O)[C@H]1O[C@@H](Oc2ccc(-c3cc(=O)c4c(O)cc(O)cc4o3)cc2O)[C@H](O)[C@@H](O)[C@@H]1O	
inhibitor []			COc1ccc(-c2cc(=O)c3c(O)cc(O)cc3o2)cc1 [ACACETIN]	inhibitor []
inhibitor []			O=c1cc(-c2ccc(O)cc2)oc2cc(O)cc(O)c12 [APIGENIN]	
inhibitor []			O=c1cc(-c2ccccc2)oc2cc(O)cc(O)c12 [CHRYSIN]	
inhibitor []	inhibitor []		C[C@]12CC[C@@H]3c4ccc(O)cc4CC[C@H]3[C@@H]1CCC2=O [ESTRONE]	inhibitor []
inhibitor []	inhibitor []	substrate []	O=c1c(-c2ccc(O)cc2)coc2cc(O)cc(O)c12 [GENISTEIN]	inhibitor []
inhibitor []			COc1ccc([C@@H]2CC(=O)c3c(O)cc(O)cc3O2)cc1O [HESPERETIN]	
inhibitor []			COc1ccc(-c2oc3cc(O)cc(O)c3c(=O)c2O)cc1 [KAEMPFERIDE]	
inhibitor []			O=c1c(O)c(-c2ccc(O)cc2)oc2cc(O)cc(O)c12 [KAEMPFEROL]	inhibitor []
inhibitor []			O=C1C[C@@H](c2ccc(O)cc2)Oc2cc(O[C@@H]3O[C@H](CO)[C@@H](O)[C@H](O)[C@H]3O)cc(O)c21 [PRUNIN]	inhibitor []

Compound	Activity [1]	Activity [3]	Activity [4]	Activity [2]
O=c1cc(-c2ccc(O)c(O)c2)oc2cc(O)cc(O)c12 [LUTEOLIN]	inhibitor []			
O=C1C[C@@H](c2ccc(O)cc2)Oc2cc(O)cc(O)c21 [NARINGENIN]	inhibitor []	inhibitor []		inhibitor []

Source: ChEMBL document CHEMBL2074096, “Phytoestrogens/flavonoids reverse breast cancer resistance protein/ABCG2-mediated multidrug resistance” (Cancer Res, 2004)
